Experimental data as given in US12692247B2, “Phenyl- and pyridopyrazole derivatives as inhibitors of DDR1” (Redx Pharma Limited, priority 2021, dated 2026).

Assays:
[1] = biological target: T1, Recombinant human DDR1 (Homo sapiens, UniProt Q08345); test: LanthaScreen Eu Kinase Binding Assay, DDR1; conditions: recombinant human DDR1 (2.5 nM; aa440-876, GST tag), Kinase Tracer 178 5 nM, time-resolved fluorescence, at least two independent replicates; read-out: DDR1 pIC50 (converted)
T1 construct: Recombinant human DDR1 (2.5 nM; aa440-876 containing a GST tag)
T1 sequence (Q08345 440-876 isoform Q08345-2): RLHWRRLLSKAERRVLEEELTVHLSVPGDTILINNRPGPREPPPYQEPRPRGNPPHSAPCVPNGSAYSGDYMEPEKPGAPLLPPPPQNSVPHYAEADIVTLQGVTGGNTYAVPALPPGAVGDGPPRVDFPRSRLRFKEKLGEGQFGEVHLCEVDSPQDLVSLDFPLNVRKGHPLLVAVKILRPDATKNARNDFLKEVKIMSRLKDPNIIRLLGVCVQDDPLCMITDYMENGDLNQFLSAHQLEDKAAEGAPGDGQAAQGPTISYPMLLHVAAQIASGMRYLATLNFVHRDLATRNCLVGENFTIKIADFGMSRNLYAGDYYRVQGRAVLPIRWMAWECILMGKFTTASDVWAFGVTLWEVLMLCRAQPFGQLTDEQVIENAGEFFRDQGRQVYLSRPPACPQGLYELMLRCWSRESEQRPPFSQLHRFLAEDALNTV
Procedure: (§1) DDR1 and DDR2 Biochemical Assay Method
(§2) The capacity of compounds to bind to DDR1 and DDR2 was quantified using a LanthaScreen Eu Kinase Binding Assay. Recombinant human DDR1 (2.5 nM; aa440-876 containing a GST tag) and DDR2 (1.75 nM; aa427-855 containing a GST tag) were diluted in assay buffer (50 mM HEPES pH7.3, 10 mM MgCl2, 1 mM EGTA and 0.01% Tween) with various concentrations of compound in a 384-well plate and a volume of 5 uL. After a 30-minute incubation at room temperature, 2.5 uL of Eu-anti GST antibody (diluted to 1 nM in assay buffer) plus Kinase Tracer 178 (diluted in assay buffer to 5 nM for DDR1 and 10 nM for DDR2) were added to the plate. Following 60-minute incubation at room temperature, time-resolved fluorescence was measured on a BMG Labtech PHERAstar plate reader. DMSO (1%) and reference compound (1 μM) were used to generate the Max and Min assay signals, respectively. Data was analysed using a four-parameter logistic model to calculate IC50 values, with at least two independent replicates were performed for each compound.

[2] = biological target: T2, Recombinant human DDR2 (Homo sapiens, UniProt Q16832); test: LanthaScreen Eu Kinase Binding Assay, DDR2; conditions: recombinant human DDR2 (1.75 nM; aa427-855, GST tag), Kinase Tracer 178 10 nM, time-resolved fluorescence, at least two independent replicates; read-out: DDR2 pIC50 (converted)
T2 construct: DDR2 (1.75 nM; aa427-855 containing a GST tag)
T2 sequence (Q16832 427-855): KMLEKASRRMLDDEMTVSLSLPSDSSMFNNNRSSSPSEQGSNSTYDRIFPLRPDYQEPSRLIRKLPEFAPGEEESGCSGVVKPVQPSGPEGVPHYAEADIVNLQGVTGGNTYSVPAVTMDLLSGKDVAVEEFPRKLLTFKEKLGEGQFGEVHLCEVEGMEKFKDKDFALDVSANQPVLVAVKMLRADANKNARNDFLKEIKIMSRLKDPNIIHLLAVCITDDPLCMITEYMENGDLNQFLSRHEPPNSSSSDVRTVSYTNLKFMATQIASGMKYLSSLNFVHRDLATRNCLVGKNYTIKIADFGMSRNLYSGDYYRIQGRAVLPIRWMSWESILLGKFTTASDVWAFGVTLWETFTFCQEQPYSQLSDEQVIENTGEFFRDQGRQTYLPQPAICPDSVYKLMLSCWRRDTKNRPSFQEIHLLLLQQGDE
Procedure: as §1, §2

IC50 [1]	IC50 [2]	SMILES
0.01 to 0.1 µM	0.1 to 1 µM	CN(c1ccc2c(cnn2C)c1)c1cccc2ccn(CC(=O)Nc3cccc(C(F)(F)F)c3)c(=O)c12 [Example 144, 2-[8-[methyl-(1-methylindazol-5-yl)amino]-1-oxo-2-isoquinolyl]-N-[3-(trifluoromethyl)phenyl]acetamide]
0.1 to 1 µM	≥ 1 µM	CC(=O)C1CCN(C(=O)Cn2ccc3cccc(Nc4ccc5c(cnn5C)c4)c3c2=O)CC1 [Example 80, 2-[2-(4-acetyl-1-piperidyl)-2-oxo-ethyl]-8-[(1-methylindazol-5-yl)amino]isoquinolin-1-one]
0.01 to 0.1 µM	0.01 to 0.1 µM	CN(c1ccc2c(cnn2C)c1)c1cccc2ccn(CC(=O)Nc3cnoc3)c(=O)c12 [Example 140, N-isoxazol-4-yl-2-[8-[methyl-(1-methylindazol-5-yl)amino]-1-oxo-2-isoquinolyl]acetamide]
< 0.01 µM	0.01 to 0.1 µM	Cn1ncc2cc(Nc3cccc4ccn(CC(=O)N5CCC[C@H]5C(F)(F)F)c(=O)c34)ccc21 [Example 49]
0.01 to 0.1 µM	0.1 to 1 µM	Cn1ncc2cc(Nc3cccc4ccn(CC(=O)Nc5ccc(C(F)(F)F)nc5)c(=O)c34)ccc21 [Example 59, 2-[8-[(1-methylindazol-5-yl)amino]-1-oxo-2-isoquinolyl]-N-[6-(trifluoromethyl)-3-pyridyl]acetamide]
0.01 to 0.1 µM	0.01 to 0.1 µM	Cc1cc(C)n(C(=O)Cn2ccc3cccc(Nc4ccc5c(cnn5C)c4)c3c2=O)n1 [Example 98, 2-[2-(3,5-dimethyl-1H-pyrazol-1-yl)-2-oxoethyl]-8-[(1-methyl-1H-indazol-5-yl)amino]-1,2-dihydroisoquinolin-1-one]
< 0.01 µM	< 0.01 µM	Cn1ncc2cc(Nc3cccc4ccn(CC(=O)Nc5cncc(C(F)(F)F)c5)c(=O)c34)ccc21 [Example 31, 2-[8-[(1-methylindazol-5-yl)amino]-1-oxo-2-isoquinolyl]-N-[5-(trifluromethyl)-3-pyridyl]acetamide]
0.01 to 0.1 µM	0.1 to 1 µM	Cn1ncc2cc(Nc3cccc4ccn(CC(=O)N5CCC[C@H]5C(F)(F)F)c(=O)c34)cnc21 [Example 78, 8-[(1-methylpyrazolo[3,4-b]pyridin-5-yl)amino]-2-[2-oxo-2-[(2S)-2-(trifluoromethyl)pyrrolidin-1-yl]ethyl]isoquinolin-1-one]
0.01 to 0.1 µM	0.01 to 0.1 µM	CC(NC(=O)Cn1ccc2cccc(Nc3ccc4c(cnn4C)c3)c2c1=O)C(F)(F)F (centres unmarked) [Example 12, 2-[8-[(1-methylindazol-5-y)amino]-1-oxo-2-isoquinolyl]-N-(2,2,2-trifluoro-1-methyl-ethyl)acetamide]
< 0.01 µM	0.01 to 0.1 µM	C[C@H](NC(=O)Cn1ccc2cccc(Nc3ccc4c(cnn4C)c3)c2c1=O)C(F)(F)F [Example 19, 2-[8-[(1-methylindazol-5-yl)amino]-1-oxo-2-isoquinolyl]-N-[(1S)-2,2,2-trifluoro-1-methyl-ethyl]acetamide]
< 0.01 µM	≥ 1 µM	Cn1ncc2cc(Nc3cccc4ccn(CC(=O)NCC(F)(F)F)c(=O)c34)cc(C#N)c21 [Example 119, 2-(8-((7-cyano-1-methyl-1H-indazol-5-yl)amino)-1-oxoisoquinolin-2(1H)-yl)-N-(2,2,2-trifluoroethyl)acetamide]
< 0.01 µM	0.01 to 0.1 µM	Cn1ncc2cc(Nc3cccc4ccn(CC(=O)Nc5cccc(C(C)(C)N)c5)c(=O)c34)ccc21 [Example 103]
≥ 1 µM	≥ 1 µM	Cn1ncc2cc(Nc3cccc4ccn(CC(=O)NC(CO)C(F)(F)F)c(=O)c34)ccc21 (centres unmarked) [Example 50, 2-[8-[(1-methylindazol-5-yl)amino]-1-oxo-2-isoquinolyl]-N-[2,2,2-trifluoro-1-(hydroxymethyl)ethyl)acetamide]
0.1 to 1 µM	0.1 to 1 µM	Cc1noc(C)c1NC(=O)Cn1ccc2cccc(Nc3ccc4c(cnn4C)c3)c2c1=O [Example 69, N-(3,5-dimethylisoxazol-4-yl)-2-[8-[(1-methylindazol-5-yl)amino]-1-oxo-2-isoquinolyl]acetamide]
0.1 to 1 µM	≥ 1 µM	Cn1ncc2cc(Nc3cc(F)cc4ccn(CC(=O)NCC(F)(F)F)c(=O)c34)ccc21 [Example 47, 2-[6-fluoro-8-[(1-methylindazol-5-yl)amino]-1-oxo-2-isoquinolyl]-N-(2,2,2-trifluoroethyl) acetamide]
0.01 to 0.1 µM	0.1 to 1 µM	C[C@H](NC(=O)Cn1ccc2cccc(N(C)c3ccc4c(cnn4C)c3)c2c1=O)C(F)(F)F [Example 143, 2-[8-[methyl-(1-methylindazol-5-yl)amino]-1-oxo-2-isoquinolyl]-N-[(1S)-2,2,2-trifluoro-1-methyl-ethyl]acetamide]

The remaining lines, values behind:

SMILES	IC50 [1]	IC50 [2]
O=C(Cn1ccc2cccc(Nc3cc(Cl)c4[nH]ncc4c3)c2c1=O)NCC(F)(F)F [Example 52, 2-[8-[(7-chloro-1H-indazol-5-yl)amino]-1-oxo-2-isoquinolyl]-N-(2,2,2-trifluoroethyl) acetamide]	< 0.01 µM	0.01 to 0.1 µM
Cn1ncc2cc(Nc3cccc4ccn(CC(=O)N5CCCC[C@H]5C(F)(F)F)c(=O)c34)ccc21 [Example 61, 8-[(1-methylindazol-5-yl)amino]-2-[2-oxo-2-[(2S)-2-(trifluoromethyl)-1-piperidyl]ethyl]isoquinolin-1-one]	< 0.01 µM	0.01 to 0.1 µM
CN1CCN(C(=O)Cn2ccc3cccc(Nc4ccc5c(cnn5C)c4)c3c2=O)CC1 [Example 13, 8-[(1-methylindazol-5-yl)amino]-2-[2-(4-methylpiperazin-1-yl)-2-oxo-ethyl]isoquinolin-1-one]	≥ 1 µM	≥ 1 µM
Cn1ncc2cc(Nc3cccc4ccn(CC(=O)N5CCOCC5C(F)(F)F)c(=O)c34)ccc21 (centres unmarked) [Example 87, 8-[(1-methylindazol-5-yl)amino]-2-[2-oxo-2-[3-(trifluoromethyl)morpholin-4-yl]ethyl]isoquinolin-1-one]	0.01 to 0.1 µM	0.1 to 1 µM
Cn1ccc(NC(=O)Cn2ccc3cccc(Nc4ccc5c(cnn5C)c4)c3c2=O)n1 [Example 34, 2-[8-[(1-methylindazol-5-yl)amino]-1-oxo-2-isoquinolyl]-N-(1-methylpyrazol-3-yl)acetamide]	0.1 to 1 µM	≥ 1 µM
Cn1nccc1NC(=O)Cn1ccc2cccc(Nc3ccc4c(cnn4C)c3)c2c1=O [Example 36, 2-[8-[(1-methylindazol-5-yl)amino]-1-oxo-2-isoquinolyl]-N-(2-methylpyrazol-3-yl)acetamide]	0.01 to 0.1 µM	0.1 to 1 µM
CCNC(=O)Cn1ccc2cccc(Nc3ccc4c(cnn4C)c3)c2c1=O [Example 14, N-ethyl-2-[8-[(1-methylindazol-5-yl)amino]-1-oxo-2-isoquinolyl]acetamide]	0.1 to 1 µM	≥ 1 µM
CC(C)CNC(=O)Cn1ccc2cccc(Nc3ccc4c(cnn4C)c3)c2c1=O [Example 9, N-isobutyl-2-[8-[(1-methylindazol-5-yl)amino]-1-oxo-2-isoquinolyl]acetamide]	0.01 to 0.1 µM	0.1 to 1 µM
Cn1ncc2cc(Nc3cccc4ccn(CC(=O)NCC(F)(F)F)c(=O)c34)ccc21 [Example 3, 2-[8-[(1-methylindazol-5-yl)amino]-1-oxo-2-isoquinolyl]-N-(2,2,2-trifluoroethyl)acetamide]	0.01 to 0.1 µM	0.1 to 1 µM
CN(c1ccc2c(cnn2C)c1)c1cccc2ccn(CC(=O)NCC(F)(F)F)c(=O)c12 [Example 88, 2-[8-[methyl-(1-methylindazol-5-yl)amino]-1-oxo-2-isoquinolyl]-N-(2,2,2-trifluoroethyl) acetamide]	0.01 to 0.1 µM	0.1 to 1 µM
Cc1n[nH]c2cc(Nc3cccc4ccn(CC(=O)Nc5cccc(C(F)(F)F)c5)c(=O)c34)ccc12 [Example 159, 2-[8-[(3-methyl-1H-indazol-6-yl)amino]-1-oxo-2-isoquinolyl]-N-[3-(trifluoromethyl)phenyl]acetamide]	0.01 to 0.1 µM	0.1 to 1 µM
Cn1ncc2cc(Nc3cccc4ccn(CC(=O)N5C6CCC5COC6)c(=O)c34)ccc21 [Example 97, 8-[(1-methyl-1H-indazol-5-yl)amino]-2-(2-{3-oxa-8-azabicyclo[3.2.1]octan-8-yl}-2-oxoethyl)-1,2-dihydroisoquinolin-1-one]	0.1 to 1 µM	≥ 1 µM
